The test system of data set [1] is SW1573/WT wild type non-small lung human cell line. Description: Cell growth assay (SRB) in SW1573/WT. The format is cell-based. Here is the method:
(§1) Biological activities of the Gemcitabine derivative (which may be referred to as analogues) described above were evaluated with two assays: • 1. Cell growth assay using the SRB assay in cell lines A549/WT, SW1573/WT, PANC-01 and BXPC-3. • 2. MTT assay in human bladder cancer cell line T-24
(§2) The following cell lines were tested: • A549/WT —wild type human lung adenocarcinoma cell line (1) • SW1573/WT —wild type non-small lung human cell line (2), • PANC-01—human pancreatic cancer cell line (3) • BXPC-3 -epithelial human pancreatic adenocarcinoma cells (4).
(§3) Dipyridamole inhibits adenosine uptake by erythrocytes platelets and endothelial cells in vitro and in vivo. Thus, the present inventors recruited dipyridamole as an inhibitor of the nucleoside transporters of the tumour cells to observe the behaviour of the presently described Gemcitabine derivatives.
(§4) From the IC50 of each compound in the presence of dipyridamole, by dividing it with the IC50 of each compound in the absence of dipyridamole, the present inventors calculated a ratio that compared the efficacy of the analogous presence of dipyridamole.
(§5) Ratio=IC50 in the presence of dipyridamole/IC50 in the absence of dipyridamole • FIG. 10. Ratio of IC50 of 4-N-acyl and 4-N-phosphoryl derivatives in the presence of, compared to in the absence of, dipyridamole, in four cell lines

For data set [2], the system named is A549/WT wild type human lung adenocarcinoma cell line. The experiment in a line: Cell growth assay (SRB) in A549/WT. The format is cell-based. As to the method:
as §1, §2, §3, §4, §5

The subject of data set [3] is BXPC-3 epithelial human pancreatic adenocarcinoma cells. Description: Cell growth assay (SRB) in BXPC-3. The format is cell-based. As to the method:
as §1, §2, §3, §4, §5

Data set [4] concerns PANC-01 human pancreatic cancer cell line. The experiment in a line: Cell growth assay (SRB) in PANC-01. The data set is classed as cell-based. As to the method:
as §1, §2, §3, §4, §5

Another data set is described as follows: Human plasma stability. The data set is classed as in vitro ADME. The settings on record: 37° C., 24 hours incubation, 0.1 μM, triplicates. As to the method:
Human plasma stability of 4-N-ethyl carbamate
1. The final concentration of 4-N-ethyl carbamate Gemcitabine in human plasma was 0.1 μM.
2. Each sample was studied in triplicates.
3. The time points during incubation in which the present inventors evaluated the concentration of derivative were: 0, 1, 2, 4, 18 and 24 hours (FIG. 16). The derivative was stable after 24 hours incubation (96% still remaining).
4. A calibration curve was designed in order to quantify the concentration of derivative in human plasma (FIG. 17). Five calibrators were used at concentrations range of 0.01, 0.05, 0.1, 0.2 and 0.4 μM. Coefficient of determination (r^2) was calculated 0.999418.
5. Accuracy in terms of trueness and precision was evaluated through the analysis of three replicates at three concentration levels (low: 0.025 μM, mid: 0.08 μM and high: 0.3 μM). The trueness was expressed as the percentage difference between the calculated concentrations and the theoretical prepared concentrations while precision was expressed as CV%.
6. LOQ was determined at 0.01 μM with trueness and precision 8.49% and 9.66% respectively and within the acceptable limits for LOQ (<20%).
FIG. 17. In vitro stability of Ethyl-(4-N-Gemcitabine) carbamate (derivative 1) after 24 h incubation in human plasma at 37° C.

What is called IC50 is the point on the concentration scale where inhibition reaches its midpoint. Low values mean higher potency, high ones lower potency.

Regarding `CCOC(=O)Nc1ccn(C2OC(CO)C(O)C2(F)F)c(=O)n1` (stereo not drawn) [Derivative 1, Ethyl-(4-N-Gemcitabine) carbamate], the IC50 stood at 1.15 µM in data set [1] (Homo sapiens, SW1573, SW 1573/WT, 4-N-acyl and 4-N-phosphoryl derivatives (Table 4)); 1.6 µM in data set [2] (Homo sapiens, A549, A549/WT, 4-N-acyl and 4-N-phosphoryl derivatives (Table 4)); 0.86 µM in data set [3] (Homo sapiens, BXPC-3, BXPC-3, 4-N-acyl and 4-N-phosphoryl derivatives (Table 4)); 3.9 µM in data set [4] (Homo sapiens, Pancreatic cancer cell, 4-N-acyl and 4-N-phosphoryl derivatives (Table 4)). In addition, the “Ratio of IC50 in the presence of dipyridamole / IC50 in the absence of dipyridamole” value in data set [1] (SW 1573/WT, 4-N-acyl and 4-N-phosphoryl derivatives (Table 5)) stood at 21; in data set [2] (A549/WT, 4-N-acyl and 4-N-phosphoryl derivatives (Table 5)), 16.2; in data set [3] (BXPC-3, 4-N-acyl and 4-N-phosphoryl derivatives (Table 5)), 23.2; in data set [4] (4-N-acyl and 4-N-phosphoryl derivatives (Table 5)) it was 4.1. Besides, the “still remaining after incubation in human plasma” value in the data set “Human plasma stability” is reported as 96%.

The values are drawn from patent publication US20220296627A1, “Cytidine Derivatives and Methods of Forming Cytidine Derivatives” (Aenorasis Commercial Company of Pharmaceutical and Medical …, priority 2019, published 2022).
